Our source for the EC50 values is patent publication USRE50631E1, “ROR1 antibody immunoconjugates” (VelosBio Inc., priority 2017, dated 2025).

Structures are written as SMILES. Where “and” joins values, the source holds several entries; their conditions need not be identical. Equal values may be shown once. Non-standard residues stand in square brackets, D forms with d. Residues, ends and D or L forms follow the SMILES beside them. *: point of attachment. Dolaproine = CO[C@@H]([C@@H]1CCCN1)[C@@H](C)C(=O)O; Dil = CC[C@H](C)[C@H](NC)[C@@H](CC(=O)O)OC; X1 = C[C@@H](N*)[C@@H](O)c1ccccc1; NMeV = CN[C@H](C(=O)O)C(C)C

One data set concerns Mec-vector. The data set can be described thus: Cytotoxicity in vitro (CellTiter-Glo viability), Mec-vector. The conditions noted are these: read-out: EC50 (nM), cytotoxicity in vitro; Mec-vector (CLL), 72 hours. Here is the method: (§1) Cells were cultured in log phase growth and distributed into 96-well plates. Each cell line was plated at a slightly different cell density, ranging from 5×10^3 to 50×10^4 cells/well. Cells in duplicate were incubated with 3-fold serial dilution of a particular immunoconjugate (10, 3.33, 1.11, 0.37, 0.12, 0.041, 0.014, and 0.0045 μM) for 72 hours at 37° C. and 5% CO2. After treatment, cells were incubated with an equal volume of CellTiter-Glo® reagent (Promega Inc.) for 15 minutes at room temperature and viability was determined by a luminometer. Curves and EC50 values were generated in GraphPad Prism using a sigmoidal dose response non-linear regression fit.
(§2) Cells were grown and distributed into 96-well plates as described in Example 5. Cells in duplicate were incubated with 3-fold serial dilution of a particular immunoconjugate (660, 220, 73.3, 24.4, 8.14, 2.71, 0.91, and 0.3 nM) for 72 hours at 37° C. and 5% CO2. In some experiments, cells were incubated with an immunoconjugate for 96 hours instead of 72 hours (values highlighted with “*”). After treatment, cell viability was determined as described in Example 5. Cell surface ROR1 expression was assessed by quantitative flow cytometry and ROR1 expression was characterized as MFI>30 or MFI<30 (MFI: mean fluorescent intensity). […]
In general terms: ATP-based viability assays read luminescence as a measure of living cells.

The subject of a further data set is Mec-ROR. Nature of the data set: Cytotoxicity in vitro (CellTiter-Glo viability), Mec-ROR. The conditions noted are these: read-out: EC50 (nM), cytotoxicity in vitro; Mec-ROR (CLL), 72 hours. Here is the method: as §1, §2
For a further data set, the system named is DOHH2. The conditions noted are these: read-out: EC50 (nM), cytotoxicity in vitro; DOHH2 (DLBCL), 72 hours. Here is the method: (§3) ROR1 binding by these conjugates was tested in cell culture to define the potency of various linker-cytotoxic agent combinations. Three different types of cancer cell lines were tested: B-lymphoma cell-lines TMD-8, HBL-1, and DOHH2; triple negative breast cancer cell lines HCC1187, MDA-MB-468, Bt549; and ovarian cancer cell lines A2008, TOV112D, JHOM1, and SKOvr3.
as §1
(§4) Cells were grown and distributed into 96-well plates as described in Example 5. […] After treatment, cell viability was determined as described in Example 5. Cell surface ROR1 expression was assessed by quantitative flow cytometry and ROR1 expression was characterized as MFI>30 or MFI<30 (MFI: mean fluorescent intensity).

The test system of another data set is U2932. The data set can be described thus: Cytotoxicity in vitro (CellTiter-Glo viability), U2932. It is filed as cell-based, human. The conditions noted are these: U2932 (DLBCL), 72 hours.
Another data set concerns WSU-DLCL. The data set can be described thus: Cytotoxicity in vitro (CellTiter-Glo viability), WSU-DLCL. It is filed as cell-based, human. To be noted: WSU-DLCL (DLBCL), 72 hours.
For a further data set, the system named is Bt549. Nature of the data set: Cytotoxicity in vitro (CellTiter-Glo viability), Bt549. It is filed as cell-based, human. The conditions noted are these: Bt549 (TNBC), 72 hours.
The test system of another data set is DU4475. The data set can be described thus: Cytotoxicity in vitro (CellTiter-Glo viability), DU4475. It is filed as cell-based, human. To be noted: DU4475 (TNBC), 72 hours.
For a further data set, the system named is HCC1937. Nature of the data set: Cytotoxicity in vitro (CellTiter-Glo viability), HCC1937. The format is cell-based, human. The conditions noted are these: HCC1937 (TNBC), 72 hours.
The test system of another data set is A549. The data set can be described thus: Cytotoxicity in vitro (CellTiter-Glo viability), A549. The format is cell-based, human. The conditions noted are these: A549 (NSCLC), 72 hours.
The test system of a further data set is Hep-G2. It is filed as cell-based, human. To be noted: Hep-G2 (HCC), 72 hours; read-out: EC50 (nM), cytotoxicity in vitro.
In the next data set the test system is U2OS. The format is cell-based, human. The conditions noted are these: U2OS (OS), 72 hours; read-out: EC50 (nM), cytotoxicity in vitro.
The test system of another data set is HOS. Nature of the data set: Cytotoxicity in vitro (CellTiter-Glo viability), HOS. The format is cell-based, human. To be noted: HOS (OS), 72 hours.
The next data set relates to SAOS. The data set can be described thus: Cytotoxicity in vitro (CellTiter-Glo viability), SAOS. It is filed as cell-based, human. To be noted: SAOS (OS), 72 hours.
The subject of the next data set is FaDu. It is filed as cell-based, human. To be noted: FaDu (HN), 72 hours; read-out: EC50 (nM), cytotoxicity in vitro.
In the next data set the test system is OvCar4. The data set can be described thus: Cytotoxicity in vitro (CellTiter-Glo viability), OvCar4. It is filed as cell-based, human. To be noted: OvCar4 (Ovarian), 72 hours.
A further data set has as its system TOV112D. The data set can be described thus: Cytotoxicity in vitro (CellTiter-Glo viability), TOV112D. It is filed as cell-based, human. The conditions noted are these: TOV112D (Ovarian), 72 hours.
For another data set, the system named is JHOM1. Nature of the data set: Cytotoxicity in vitro (CellTiter-Glo viability), JHOM1. The format is cell-based, human. The conditions noted are these: JHOM1 (Ovarian), 72 hours.
Another data set deals with SKOvr3. The data set can be described thus: Cytotoxicity in vitro (CellTiter-Glo viability), SKOvr3. The format is cell-based, human. The conditions noted are these: SKOvr3 (Ovarian), 72 hours.
The next data set has as its system ES2. Nature of the data set: Cytotoxicity in vitro (CellTiter-Glo viability), ES2. The format is cell-based, human. To be noted: ES2 (Ovarian), 72 hours.
In another data set the test system is A2780. The data set can be described thus: Cytotoxicity in vitro (CellTiter-Glo viability), A2780. The format is cell-based, human. To be noted: A2780 (Ovarian), 72 hours.
For another data set, the system named is Bx-PC3. Nature of the data set: Cytotoxicity in vitro (CellTiter-Glo viability), Bx-PC3. The format is cell-based, human. To be noted: Bx-PC3 (Pancreatic), 72 hours.
In a further data set the test system is As-PC1. The data set can be described thus: Cytotoxicity in vitro (CellTiter-Glo viability), As-PC1. The format is cell-based, human. The conditions noted are these: As-PC1 (Pancreatic), 72 hours.
In a further data set the test system is Hep-3B. The data set can be described thus: Cytotoxicity in vitro (CellTiter-Glo viability), Hep-3B. The format is cell-based. To be noted: Homo sapiens, Hep3B; Hep-3B (HCC), 72 hours.
In another data set the test system is TMD-8. Nature of the data set: Cytotoxicity in vitro (CellTiter-Glo viability), TMD-8. The format is cell-based, human. To be noted: TMD-8 (DLBCL), 72 hours.
A further data set concerns HBL-1. Nature of the data set: Cytotoxicity in vitro (CellTiter-Glo viability), HBL-1. The format is cell-based, human. The conditions noted are these: HBL-1 (DLBCL), 72 hours.
In a further data set the test system is HCC1187. Nature of the data set: Cytotoxicity in vitro (CellTiter-Glo viability), HCC1187. To be noted: read-out: EC50 (nM), cytotoxicity in vitro; HCC1187 (TNBC), 72 hours. As for the experimental part: as §3, §1, §4
Another data set concerns MDA-MB-468. The data set can be described thus: Cytotoxicity in vitro (CellTiter-Glo viability), MDA-MB-468. The conditions noted are these: read-out: EC50 (nM), cytotoxicity in vitro; MDA-MB-468 (TNBC), 72 hours. As for the experimental part: as §3, §1, §4
The subject of the next data set is MDA-MB-231. Nature of the data set: Cytotoxicity in vitro (CellTiter-Glo viability), MDA-MB-231. The format is cell-based, human. To be noted: MDA-MB-231 (TNBC), 72 hours.
Another data set relates to H460. The data set can be described thus: Cytotoxicity in vitro (CellTiter-Glo viability), H460. To be noted: H460 (NSCLC), 72 hours. It is filed as cell-based, human.

Method for Bt549: (§5) Cells were grown and distributed into 96-well plates as described in Example 5. Cells in duplicate were incubated with 3-fold serial dilution of a particular immunoconjugate (660, 220, 73.3, 24.4, 8.14, 2.71, 0.91, and 0.3 nM) for 72 hours at 37° C. and 5% CO2. […] After treatment, cell viability was determined as described in Example 5.
Method for JHOM1: as §5
Method for SKOvr3: as §5
Method for TMD-8: as §5
Method for TOV112D: as §5

As usually defined, the EC50 is the concentration giving half of the maximal effect. For `CC[C@H](C)[C@@H]([C@@H](CC(=O)N1CCC[C@H]1[C@H](OC)[C@@H](C)C(=O)N[C@H](C)[C@@H](O)c1ccccc1)OC)N(C)C(=O)[C@@H](NC(=O)[C@@H](NC)C(C)C)C(C)C` [MMAE, monomethyl auristatin E, reference compound] (H-[NMeV]V[Dil][Dolaproine]-X1), the EC50 in the data set with Mec-vector came out at 0.5 nM; with Mec-ROR, 0.6 nM; in the data set with DOHH2, 0.007 nM; with U2932 it was 0.006 nM; in the data set with WSU-DLCL, 0.06 nM; in the data set with Bt549, 0.047 nM. Moreover, the EC50 in the data set with DU4475 is 2.5 nM; in the data set on HCC1937, greater than 1000 nM; with A549, 0.06 nM; with Hep-G2 it was greater than 1000 nM; in the data set on U2OS it was 1.2 nM; with HOS, 0.06 nM. In addition, the concentration giving a half-maximal response (EC50) in the data set with SAOS was 0.05 nM; in the data set with FaDu, greater than 1000 nM; with OvCar4 it was 24.2 nM; in the data set with TOV112D, 0.04 nM; in the data set on JHOM1 it was 0.01 nM; in the data set on SKOvr3, 0.01 nM. For the same compound, the EC50 with ES2 came out at 1.1 nM; in the data set with A2780 it was 0.08 nM; in the data set on Bx-PC3, 0.04 nM; in the data set with As-PC1, 0.04 nM.
On to `CN(C)CCN1C(=O)c2cccc3cc4ccccc4c(c23)C1=O` [Azonafide, azonafide, reference compound], for which the EC50 in the data set on A549 (Homo sapiens) and in the data set with Hep-3B was greater than 1000 nM throughout.
On to `COc1cc2cc(c1Cl)N(C)C(=O)C[C@H](OC(=O)[C@H](C)N(C)C(=O)CCS)[C@]1(C)O[C@H]1[C@H](C)[C@@H]1C[C@@](O)(NC(=O)O1)[C@H](OC)/C=C/C=C(\C)C2` [DM1, N2′-Deacetyl-N2′-(3-mercaptol-oxopropyl)maytansine], for which the EC50 was determined as 1.4 nM in the data set on TMD-8; 9.3 nM in the data set with HBL-1; 1.78 nM in the data set with DOHH2; 3.9 nM in the data set with HCC1187; 15.2 nM in the data set on MDA-MB-468; 0.047 nM in the data set with Bt549. Besides, the EC50 in the data set on OvCar4 was greater than 1000 nM; with TOV112D it was 2.4 nM; in the data set with JHOM1, 0.01 nM; in the data set on SKOvr3 it was 9.1 nM.
As for `COc1cccc2c1C(=O)c1c(O)c3c(c(O)c1C2=O)C[C@@](O)(C(=O)CO)C[C@@H]3O[C@H]1C[C@H]2[C@H](O[C@@H]3[C@@H](OC)OCCN32)[C@H](C)O1` [PNU-159682, reference compound], the half-maximal effective concentration (EC50) with MDA-MB-231 is 0.005 nM; in the data set on H460, 0.001 nM and 0.002 nM.
